Data taken from patent US11197859B2 (AUTIFONY THERAPEUTICS LIMITED, priority 2010, dated 2021).

How the values were obtained:
[1] = tested on: Male CD-1 mice; assay: Psychostimulant (amphetamine)-induced hyperactivity in mice; details: AMPH 2 mg/kg i.p. + compound 10 mg/kg p.o. 30 min before; over 60 min; mean ± sem
[2] = tested on: Male CD rats; assay: Electroshock seizure model in rats; assay type: in vivo, rat; details: 2 hours before test
Protocol: Male CD rats (85-130 g) were supplied by Charles River, Italy.
Testing involved determining the threshold for tonic hindlimb extensor seizures using a Hugo Sachs Electronik stimulator which delivers a constant current of 0.3 second duration, 50 Hz, sinewave form, fully adjustable between 1 and 300 mA. Stimuli were delivered via corneal electrodes (Stean T O, Atkins A R, Heidbreder C A, Quinn L P, Trail B K, Upton N. (2005) Br J Pharmacol. 144(5):628-35). Seizure threshold was determined using the ‘up and down’ method of Kimball et al. (1957)(Kimball A W, Burnett W T Jr, Doherty D G. (1957) Radiat Res. 7(1):1-12). The first animal tested in each group was stimulated with a current that might be expected to be close to the threshold for induction of a seizure. If a tonic seizure was not induced, then the next animal in the group received a stimulus 5 mA higher. If a tonic seizure was induced, then the next animal received a stimulus 5 mA lower. This is repeated for all animals within the control (vehicle) group. In the case of groups treated with a test compound steps of 5 to 10 mA were used. At the end of the study, blood samples were taken for analysis of the drug concentrations in this compartment (n=4/group).
All doses were calculated as base. Sodium valproate was suspended in Methocell 1% (w/v) and dosed via the oral (p.o.) route at 5 mL/kg 1 hour before test. Reference Example RE1 was dissolved in DMSO and then suspended in Methocell 1% (w/v) to a final DMSO concentration of 5% (v/v). Reference Example RE1 was then dosed p.o. at 5 mL/kg 2 hours before test.
Induction of seizure is measured as an all-or-nothing effect scored as either present (+) or absent (0) for each animal. […] Drug effects were calculated as the % change in CC50. Significant differences between drug-treated animals and appropriate vehicle treated groups were assessed according to the methods of Litchfield and Wilcoxon (1949).

[3] = tested on: Adult male CD rats; assay: Assessment of physiological sleep in the rat (EEG/EMG telemetry); assay type: in vivo; details: 60 mg/kg oral at CT18, 5 hour period following dosing
Protocol: Adult male CD rats (C. River, Italy) were implanted with telemetric probes and housed singly, under controlled condition (temperature 18-20° C.; relative humidity 45-50%; 12 hours light-dark cycle, lights on at 3 p.m., designated Circadian Time (CT) 0) with free access to food and water.
Reference Example RE1 was formulated in tween (0.1% v/v) and HPMC (0.5% v/v) and was administered orally at doses of 10, 30 and 60 mg/kg (vol. 2 ml/kg) at CT18 (6 hours before lights on). The electroencephalogram (EEG) and electromyogram (EMG) were recorded continuously, starting immediately after administration, using telemetric apparatus (DSI Dataquest® A.R.T. system). EEG and EMG recordings were analysed to evaluate sleep patterns using sleepSign® (Kissei Comtec Co.). Statistical analyses (1-way Anova followed by a Dunnett's test) was performed using Statistica-8 software.

CC[C@H]1NC(=O)N(c2ccc(Oc3ccc(C)c(OC)c3)nc2)C1=O [RE1, (5R)-5-ethyl-3-(6-{[4-methyl-3-(methyloxy)phenyl]oxy}-3-pyridinyl)-2,4-imidazolidinedione]
Total Distance Travelled (cm) [1]: 15267 ± 3166 cm
increase in seizure threshold (% change in CC50) ([2]; 30 mg/kg p.o.): 91%
increase in seizure threshold (% change in CC50) ([2]; 60 mg/kg p.o.): 218%
time spent in REM sleep [3]: did not affect
time spent in non-REM sleep ([3]; p<0.05, n=8): significantly increased
total sleep time ([3]; p<0.05, n=8): significantly increased
